# Reference: publication PMC7643960 (PLoS ONE, 2020)
# Assay: Franz-type diffusion cell (FDC) permeation with HPLC analysis
# Type: in vitro ADME, horse
# Conditions: any of the FDC experiments
# Text: Two different pharmaceutical formulations were provided by Skinomics GmbH, Halle, Germany, for in vitro permeation studies.
# Skin from six horses was used for each FDC experiment. The skin from the lateral thorax was dissected at the Institute of Pathology, University of Veterinary Medicine Hannover, Foundation, Hannover, Germany, after euthanasia of the horses at the Clinic for Horses, University of Veterinary Medicine Hannover, Foundation, for reasons unrelated to the present study. Therefore, a prospective approval of the experiments by an animal research ethics committee was not required. Skin samples were stored at -20°C until use (maximum five months). Further skin sample preparation and diffusion experiments were performed as reported. Skin samples were incubated with test formulation 1 for 24 h and with test formulation 2 for 30 min and 24 h, respectively.
# The following slices were 20-μm thick. […] A higher permeation rate of the compound was expected for 24-h experiments and, therefore, the 20-μm slices were stored and analyzed separately up to a depth of 310 μm. The slices were then pooled at 5 × 20 μm until a depth of a maximal 910 μm was reached. The cryostat blade was cleaned with tissues soaked in 80% methanol between each cut. The quantity of NVX-207 was determined by an analytic high-performance liquid chromatography (HPLC) method. […]
compound,measurement,value
"C=C(C)[C@@H]1CC[C@]2(C(=O)OCC(N)(CO)CO)CC[C@]3(C)[C@H](CC[C@@H]4[C@@]5(C)CC[C@H](OC(C)=O)C(C)(C)[C@@H]5CC[C@]43C)[C@@H]12 [NVX-207, 3-acetyl-betulinic acid-2-amino-3-hydroxy-2-hydroxymethyl-propanoate]",NVX-207 in the acceptor medium,No NVX-207 was detected
